Measurements published in US8796458B2, “Cyclohexylamine isoquinolone derivatives” (Sanofi, priority 2005, dated 2014).

Each compound was assayed against T1, ROCKII or ROKα (Homo sapiens, UniProt O75116) (assay: Determination of Rho kinase inhibition (33P-ATP Flash Plate assay)). Details: ATP 40 μM, respective form (salt or free base) as obtained in the examples.
T1 construct: purchased Upstate 14-451
Format: biochemical
Method: Determination of Rho Kinase Inhibition
To measure Rho-kinase inhibition, IC50 values were determined according to the following protocol:
Buffer: 25 mM Tris pH7.5; 0.02% BSA; 5% Glycerol; 0.008% Triton X100; 2% DMSO, 1 mM DTT; 1 mM MgCl2; 0.5 μCi/well γ^33P ATP
Enzyme: ROCKII or ROKα) (Upstate, Catalog #14-451) 0.1 ng/μl
Final concentration of ATP in reaction mixture 40 μM
Biotinylated substrate, diluted to 0.25 μM with buffer described above (without ATP) • 1. 10 μl Tris buffer (±Inhibitor) • 2. Add 30 μL of enzyme solution • 3. Start the reaction with 30 μL of mix substrate/ATP/ATP33 • 4. Incubate for 20 min at room temperature • 5. Stop reaction with 30 μL of 50 mM EDTA • 6. Transfer 50 μL of stopped solution to Streptavidin Flash Plate plus, Perkin Elmer, SMP 103A • 7. Incubate for 30 min at RT • 8. Wash 4 times with 300 μl of PBS/0.1% Tween 20 • 9. Radioactivity in the well was determined
The following products/compounds were tested in said assay by using the respective form (salt or free base) obtained as in the examples described above and the following activities were measured.

T1 sequence (O75116 whole entry): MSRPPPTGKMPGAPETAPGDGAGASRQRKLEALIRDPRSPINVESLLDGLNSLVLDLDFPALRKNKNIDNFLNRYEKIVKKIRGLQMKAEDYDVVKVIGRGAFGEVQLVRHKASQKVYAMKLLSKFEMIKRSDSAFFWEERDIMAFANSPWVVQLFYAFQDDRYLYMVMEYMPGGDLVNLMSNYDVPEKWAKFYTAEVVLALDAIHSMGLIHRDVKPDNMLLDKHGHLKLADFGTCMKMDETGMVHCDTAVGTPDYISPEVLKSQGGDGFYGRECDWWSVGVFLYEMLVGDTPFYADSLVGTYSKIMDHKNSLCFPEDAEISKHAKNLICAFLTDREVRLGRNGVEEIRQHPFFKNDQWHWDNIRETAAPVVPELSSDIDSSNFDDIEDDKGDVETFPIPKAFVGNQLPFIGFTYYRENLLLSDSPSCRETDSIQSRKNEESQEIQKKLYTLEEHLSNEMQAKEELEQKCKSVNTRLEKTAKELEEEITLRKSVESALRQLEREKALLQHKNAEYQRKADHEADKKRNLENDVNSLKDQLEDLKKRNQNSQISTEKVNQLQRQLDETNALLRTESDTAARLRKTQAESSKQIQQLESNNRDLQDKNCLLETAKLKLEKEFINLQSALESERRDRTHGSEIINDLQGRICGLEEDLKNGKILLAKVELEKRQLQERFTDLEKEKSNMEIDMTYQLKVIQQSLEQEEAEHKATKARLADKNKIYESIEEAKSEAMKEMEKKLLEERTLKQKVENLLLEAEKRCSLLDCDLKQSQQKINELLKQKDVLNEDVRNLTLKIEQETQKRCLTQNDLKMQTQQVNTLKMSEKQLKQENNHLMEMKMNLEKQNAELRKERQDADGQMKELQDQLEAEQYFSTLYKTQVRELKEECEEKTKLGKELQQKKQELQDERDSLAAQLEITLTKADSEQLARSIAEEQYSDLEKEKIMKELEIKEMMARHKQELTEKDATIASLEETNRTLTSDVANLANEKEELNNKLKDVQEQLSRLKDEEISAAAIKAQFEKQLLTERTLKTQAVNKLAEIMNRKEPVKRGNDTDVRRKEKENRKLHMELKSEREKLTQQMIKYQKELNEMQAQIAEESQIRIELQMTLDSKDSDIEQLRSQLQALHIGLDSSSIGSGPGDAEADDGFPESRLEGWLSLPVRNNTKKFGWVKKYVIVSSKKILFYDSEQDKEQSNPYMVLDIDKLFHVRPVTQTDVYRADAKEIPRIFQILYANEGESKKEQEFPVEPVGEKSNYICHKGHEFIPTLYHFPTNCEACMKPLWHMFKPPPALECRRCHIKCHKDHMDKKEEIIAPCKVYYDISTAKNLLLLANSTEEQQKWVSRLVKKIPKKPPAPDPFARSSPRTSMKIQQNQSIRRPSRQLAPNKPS

| Compound | pIC50 |
| --- | --- |
| CC(C)CN(CC(C)C)[C@H]1CC[C@H](Oc2cc3cc[nH]c(=O)c3cc2Cl)CC1 [Example 65] | +++++ (6.0≦pIC50) |
| O=c1[nH]ccc2cc(O[C@H]3CC[C@H](N(CC4CC4)CC4CC4)CC3)c(Cl)cc12 [Example 66] | ++++ (5.0≦pIC50<6.0) |
| N[C@H]1CC[C@@H](Oc2ccc3c(=O)[nH]ccc3c2Cl)CC1 [Example 11, 6-(cis-4-Amino-cyclohexyloxy)-5-chloro-2H-isoquinolin-1-one] | +++++ (6.0≦pIC50) |
| O=c1[nH]ccc2cc(O[C@H]3CC[C@@H](NCc4ccc5ccccc5c4)CC3)c(Cl)cc12 [Example 77] | +++++ (6.0≦pIC50) |
| CCCCN(CCCC)[C@H]1CC[C@@H](Oc2ccc3c(=O)[nH]ccc3c2Cl)CC1 [Example 53] | ++++ (5.0≦pIC50<6.0) |
| O=c1[nH]ccc2c(Cl)c(O[C@H]3CC[C@@H](NCC4CC4)CC3)ccc12 [Example 48] | +++++ (6.0≦pIC50) |
| O=c1[nH]ccc2cc(O[C@H]3CC[C@@H](N(C4CC4)C4CC4)CC3)c(Cl)cc12 [Example 13, 7-Chloro-6-(cis-4-dicyclopropylamino-cyclohexyloxy)-2H-isoquinolin-1-one] | +++++ (6.0≦pIC50) |
| O=c1[nH]ccc2cc(O[C@H]3CC[C@@H](NCC4CC4)CC3)ccc12 [Example 125, 6-[cis-4-(Cyclopropylmethyl-amino)-cyclohexyloxy]-2H-isoquinolin-1-one] | +++++ (6.0≦pIC50) |
| CCCCN[C@H]1CC[C@@H](Oc2ccc3c(=O)[nH]ccc3c2Cl)CC1 [Example 45] | +++++ (6.0≦pIC50) |
| CCCN[C@H]1CC[C@@H](Oc2ccc3c(=O)[nH]ccc3c2Cl)CC1 [Example 44] | +++++ (6.0≦pIC50) |
| CC(C)N[C@H]1CC[C@@H](Oc2ccc3c(=O)[nH]ccc3c2Cl)CC1 [Example 46] | +++++ (6.0≦pIC50) |
| O=c1[nH]ccc2cc(O[C@H]3CC[C@@H](N(CC4CC4)CC4CC4)CC3)c(Cl)cc12 [Example 41] | +++++ (6.0≦pIC50) |
| N[C@H]1CC[C@H](Oc2ccc3c(=O)[nH]ccc3c2)CC1 [Example 20, trans-6-(4-Amino-cyclohexyloxy)-2H-isoquinolin-1-one] | +++++ (6.0≦pIC50) |

Now from value to compound:

| pIC50 | Compound |
| --- | --- |
| +++++ (6.0≦pIC50) | CCCCN[C@H]1CC[C@H](Oc2cc3cc[nH]c(=O)c3cc2Cl)CC1 [Example 58] |
| +++++ (6.0≦pIC50) | O=c1[nH]ccc2cc(O[C@H]3CC[C@@H](NCc4ccc(Cl)cc4Cl)CC3)c(Cl)cc12 [Example 71] |
| +++++ (6.0≦pIC50) | O=c1[nH]ccc2cc(O[C@H]3CC[C@@H](NCc4cc(Cl)ccc4Cl)CC3)c(Cl)cc12 [Example 70] |
| +++++ (6.0≦pIC50) | O=c1[nH]ccc2cc(O[C@H]3CC[C@@H](NCc4cc(Cl)cc(Cl)c4)CC3)c(Cl)cc12 [Example 69] |
| +++++ (6.0≦pIC50) | Cc1cc2c(=O)[nH]ccc2cc1O[C@H]1CC[C@H](N)CC1 [Example 137, 6-(trans-4-Amino-cyclohexyloxy)-7-methyl-2H-isoquinolin-1-one] |
| +++++ (6.0≦pIC50) | Cc1cc2c(=O)[nH]ccc2cc1O[C@H]1CC[C@@H](N)CC1.Cl [Example 138, 6-(cis-4-Amino-cyclohexyloxy)-7-methyl-2H-isoquinolin-1-one] |
| +++++ (6.0≦pIC50) | CCN(CC)[C@H]1CC[C@H](Oc2cc3cc[nH]c(=O)c3cc2Cl)CC1 [Example 56] |
| +++++ (6.0≦pIC50) | O=c1[nH]ccc2cc(O[C@H]3CC[C@@H](NCc4cccc(Cl)c4)CC3)c(Cl)cc12 [Example 37] |
| +++++ (6.0≦pIC50) | O=c1[nH]ccc2cc(O[C@H]3CC[C@@H](NC4CC4)CC3)c(Cl)cc12 [Example 12, 7-Chloro-6-(cis-4-cyclopropylamino-cyclohexyloxy)-2H-isoquinolin-1-one] |
| +++++ (6.0≦pIC50) | N[C@H]1CC[C@@H](Oc2cc3cc[nH]c(=O)c3cc2Cl)CC1 [Example 10, 6-(cis-4-Amino-cyclohexyloxy)-7-chloro-2H-isoquinolin-1-one] |
| +++++ (6.0≦pIC50) | CCN[C@H]1CC[C@@H](Oc2cc3cc[nH]c(=O)c3cc2Cl)CC1 [Example 29] |
| +++++ (6.0≦pIC50) | N[C@H]1CC[C@H](Oc2cc3cc[nH]c(=O)c3cc2Cl)CC1 [Example 14, 6-(trans-4-Amino-cyclohexyloxy)-7-chloro-isoquinolin-1-ol] |
| +++++ (6.0≦pIC50) | O=c1[nH]ccc2cc(O[C@H]3CC[C@@H](NCc4ccccc4)CC3)c(Cl)cc12 [Example 67] |
